Molecular target: T1, human recombinant GPR65 (Homo sapiens, UniProt Q8IYL9)
T1 construct: host or cells: 1321N1 human astrocytoma cells (1321N1-hrGPR65)
Assay: Human GPR65 cAMP HTRF antagonist assay
Assay type: cell-based
Conditions: 1321N1-hrGPR65 cells stimulated at assay pH 7.2; suppression of cAMP rise; read-out: hGPR65 IC50
In short: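 1321N1 astrocytoma cells stably expressing human GPR65, 2,000 per well in KRH with 1 mM IBMX and 200 μM EDTA, preincubated 30 min with compound at RT. Acid stimulation at pH 7.2 for 30 min, pH 7.9 as control. cAMP read by HTRF 665/620 ratio; IC50 from normalised 4-parameter fit.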

T1 sequence (Q8IYL9 whole entry): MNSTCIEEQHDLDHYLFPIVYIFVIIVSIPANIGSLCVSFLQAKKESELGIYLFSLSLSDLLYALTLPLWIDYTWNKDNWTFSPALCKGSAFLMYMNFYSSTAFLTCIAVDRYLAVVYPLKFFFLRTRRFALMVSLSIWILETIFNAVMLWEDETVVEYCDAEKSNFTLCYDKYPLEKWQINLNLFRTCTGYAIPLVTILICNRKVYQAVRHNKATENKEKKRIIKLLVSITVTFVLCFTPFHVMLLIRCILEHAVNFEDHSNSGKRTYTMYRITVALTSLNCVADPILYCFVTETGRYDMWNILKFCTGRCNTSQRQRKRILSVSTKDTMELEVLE

Structure (SMILES) | IC50
O=C(Nc1ccc(Cl)c(Cl)c1)N1CCc2cc(F)c(F)cc2C1 [Compound 106, N-(3,4-Dichlorophenyl)-6,7-difluoro-3,4-dihydroisoquinoline-2(1H)-carboxamide] | < 0.5 µM
O=C(Nc1ccc(C(F)(F)F)cc1)N1CCc2ncncc2C1 [Compound 4, N-(4-(Trifluoromethyl)phenyl)-7,8-dihydropyrido[4,3-d]pyrimidine-6(5H)-carboxamide] | > 5 µM
COc1ccc2c(c1)CCN(C(=O)Nc1ccc(C(F)(F)F)c(Cl)c1)C2 [Compound 67, N-(3-Chloro-4-(trifluoromethyl)phenyl)-6-methoxy-3,4-dihydroisoquinoline-2(1H)-carboxamide] | 0.5 to 5 µM
O=C(Nc1ccc(Cl)c(Cl)c1)N1CCc2nocc2C1 [Compound 98, N-(3,4-Dichlorophenyl)-6,7-dihydroisoxazolo[4,3-c]pyridine-5(4H)-carboxamide] | 0.5 to 5 µM
COc1cc2c(cn1)CCN(C(=O)Nc1ccc(C(F)(F)F)c(Cl)c1)C2 [Compound 107, N-(3-Chloro-4-(trifluoromethyl)phenyl)-7-methoxy-3,4-dihydro-2,6-naphthyridine-2(1H)-carboxamide] | > 5 µM
O=C(Nc1ccc(Cl)c(Cl)c1)N1CCc2cc(-c3ccsc3)ccc2C1 [Compound 128, N-(3,4-Dichlorophenyl)-6-(thiophen-3-yl)-3,4-dihydroisoquinoline-2(1H)-carboxamide] | > 5 µM
O=C(Nc1ccc(Cl)c(C(F)(F)F)c1)N1CCc2cc(Cl)ccc2C1 [Compound 53, 6-Chloro-N-(4-chloro-3-(trifluoromethyl)phenyl)-3,4-dihydroisoquinoline-2(1H)-carboxamide] | < 0.5 µM
O=C(Nc1ccc(Cl)c(Cl)c1)N1CCc2cn3cncc3cc2C1 [Compound 117, N-(3,4-Dichlorophenyl)-6,7-dihydroimidazo[1,5-b][2,6]naphthyridine-8(9H)-carboxamide] | < 0.5 µM
O=C(Nc1ccc(C(F)(F)F)c(Cl)c1)N1CCc2cc[n+]([O-])cc2C1 [Compound 94, 7-((3-Chloro-4-(trifluoromethyl)phenyl)carbamoyl)-5,6,7,8-tetrahydro-2,7-naphthyridine 2-oxide] | > 5 µM
Cc1cccc2c1CN(C(=O)Nc1ccc(Cl)c(Cl)c1)CC2 [Compound 27, N-(3,4-Dichlorophenyl)-8-methyl-3,4-dihydroisoquinoline-2(1H)-carboxamide] | 0.5 to 5 µM
N#Cc1cccc2c1CCN(C(=O)Nc1ccc(Cl)c(C(F)(F)F)c1)C2 [Compound 137, N-(4-Chloro-3-(trifluoromethyl)phenyl)-5-cyano-3,4-dihydroisoquinoline-2(1H)-carboxamide] | 0.5 to 5 µM
O=C(Nc1ccc(Cl)c(Cl)c1)N1CCc2c(Cl)cccc2C1 [Compound 55, 5-Chloro-N-(3,4-dichlorophenyl)-3,4-dihydroisoquinoline-2(1H)-carboxamide] | 0.5 to 5 µM
O=C(Nc1ccc(Cl)c(Cl)c1)N1CCc2cn3ncnc3cc2C1 [Compound 121, N-(3,4-Dichlorophenyl)-6,7-dihydro-[1,2,4]triazolo[1,5-b][2,6]naphthyridine-8(9H)-carboxamide] | > 5 µM
O=C(Nc1ccc(Cl)cc1)N1CCc2ncncc2C1 [Compound 2, N-(4-Chlorophenyl)-7,8-dihydropyrido[4,3-d]pyrimidine-6(5H)-carboxamide] | > 5 µM
O=C(Nc1ccc(Cl)c(Cl)c1)N1CCc2[nH]c(=O)ccc2C1 [Compound 78, N-(3,4-Dichlorophenyl)-2-oxo-1,5,7,8-tetrahydro-1,6-naphthyridine-6(2H)-carboxamide] | > 5 µM
N#Cc1ccc2c(c1)CN(C(=O)Nc1ccc(C(F)(F)F)c(Cl)c1)CC2 [Compound 51, N-(3-Chloro-4-(trifluoromethyl)phenyl)-7-cyano-3,4-dihydroisoquinoline-2(1H)-carboxamide] | 0.5 to 5 µM
O=C(Nc1ccc(C(F)(F)F)c(Cl)c1)N1CCc2cccc(F)c2C1 [Compound 47, N-(3-Chloro-4-(trifluoromethyl)phenyl)-8-fluoro-3,4-dihydroisoquinoline-2(1H)-carboxamide] | 0.5 to 5 µM
O=C(Nc1ccc(Cl)c(Cl)c1)N1CCc2cc(-c3cccnc3F)ccc2C1 [Compound 126, N-(3,4-Dichlorophenyl)-6-(2-fluoropyridin-3-yl)-3,4-dihydroisoquinoline-2(1H)-carboxamide] | 0.5 to 5 µM
O=C(Nc1ccc(Cl)c(Cl)c1)N1CCc2cc(-c3cccs3)ccc2C1 [Compound 127, N-(3,4-Dichlorophenyl)-6-(thiophen-2-yl)-3,4-dihydroisoquinoline-2(1H)-carboxamide] | > 5 µM

Structure (SMILES) | IC50
COC(=O)c1cc2c(cn1)CN(C(=O)Nc1ccc(C(F)(F)F)c(Cl)c1)CC2 [Compound 129, Methyl 7-((3-chloro-4-(trifluoromethyl)phenyl)carbamoyl)-5,6,7,8-tetrahydro-2,7-naphthyridine-3-carboxylate] | 0.5 to 5 µM
O=C(Nc1ccc(C(F)(F)F)c(Cl)c1)N1CCc2nccnc2C1 [Compound 24, N-(3-Chloro-4-(trifluoromethyl)phenyl)-7,8-dihydropyrido[3,4-b]pyrazine-6(5H)-carboxamide] | > 5 µM
O=C(Nc1cc(Cl)c(Cl)cc1C(F)(F)F)N1CCc2cc(=O)[nH]cc2C1 [Compound 130, N-(4,5-Dichloro-2-(trifluoromethyl)phenyl)-6-oxo-3,4,6,7-tetrahydro-2,7-naphthyridine-2(1H)-carboxamide] | > 5 µM
O=C(Nc1ccc(Cl)c(Cl)c1)N1CCc2ccncc2C1 [Compound 15, N-(3,4-Dichlorophenyl)-3,4-dihydro-2,7-naphthyridine-2(1H)-carboxamide] | 0.5 to 5 µM
CC1c2ccc(F)cc2CCN1C(=O)Nc1ccc(Cl)c(Cl)c1 (centres unmarked) [Compound 93, N-(3,4-Dichlorophenyl)-6-fluoro-1-methyl-3,4-dihydroisoquinoline-2(1H)-carboxamide] | < 0.5 µM
O=C(Nc1ccc(Cl)c(C(F)(F)F)c1)N1CCc2cccc(F)c2C1 [Compound 46, N-(4-Chloro-3-(trifluoromethyl)phenyl)-8-fluoro-3,4-dihydroisoquinoline-2(1H)-carboxamide] | > 5 µM
O=C(Nc1ccc(Cl)c(Cl)c1)N1CCc2cc(F)ncc2C1 [Compound 85, N-(3,4-dichlorophenyl)-6-fluoro-3,4-dihydro-2,7-naphthyridine-2(1H)-carboxamide] | < 0.5 µM
O=C(Nc1ccc(C(F)(F)F)c(Cl)c1)N1CCc2cc(C(F)(F)F)ccc2C1 [Compound 72, N-(3-Chloro-4-(trifluoromethyl)phenyl)-6-(trifluoromethyl)-3,4-dihydroisoquinoline-2(1H)-carboxamide] | > 5 µM
O=C(Nc1ccc(Cl)c(Cl)c1)N1CCc2cncnc2C1 [Compound 8, N-(3,4-Dichlorophenyl)-5,8-dihydropyrido[3,4-d]pyrimidine-7(6H)-carboxamide] | > 5 µM
O=C(Nc1ccc(Cl)c(Cl)c1)N1CCc2nc(F)ccc2C1 [Compound 123, N-(3,4-Dichlorophenyl)-2-fluoro-7,8-dihydro-1,6-naphthyridine-6(5H)-carboxamide] | < 0.5 µM
N#Cc1cc2c(cn1)CN(C(=O)Nc1ccc(Cl)c(Cl)c1)CC2 [Compound 102, 6-Cyano-N-(3,4-dichlorophenyl)-3,4-dihydro-2,7-naphthyridine-2(1H)-carboxamide] | 0.5 to 5 µM
O=C(Nc1ccc(Cl)c(Cl)c1)N1CCc2nonc2C1 [Compound 101, N-(3,4-Dichlorophenyl)-6,7-dihydro-[1,2,5]oxadiazolo[3,4-c]pyridine-5(4H)-carboxamide] | 0.5 to 5 µM
O=C(Nc1ccc(C(F)(F)F)c(Cl)c1)N1CCc2c(F)cccc2C1 [Compound 36, N-(3-Chloro-4-(trifluoromethyl)phenyl)-5-fluoro-3,4-dihydroisoquinoline-2(1H)-carboxamide] | < 0.5 µM
O=C(Nc1ccc(Cl)c(Cl)c1)N1CCc2cc(Cl)ccc2C1 [Compound 52, 6-Chloro-N-(3,4-dichlorophenyl)-3,4-dihydroisoquinoline-2(1H)-carboxamide] | < 0.5 µM
N#Cc1ccc2c(c1)CCN(C(=O)Nc1ccc(Cl)c(C(F)(F)F)c1)C2 [Compound 38, N-(4-Chloro-3-(trifluoromethyl)phenyl)-6-cyano-3,4-dihydroisoquinoline-2(1H)-carboxamide] | 0.5 to 5 µM
O=C(Nc1ccc(C(F)(F)F)c(Cl)c1)N1CCc2ccc(C(F)(F)F)cc2C1 [Compound 71, N-(3-Chloro-4-(trifluoromethyl)phenyl)-7-(trifluoromethyl)-3,4-dihydroisoquinoline-2(1H)-carboxamide] | 0.5 to 5 µM
O=C(Nc1ccc(Cl)c(Cl)c1F)N1CCc2cc(=O)[nH]cc2C1 [Compound 118, N-(3,4-Dichloro-2-fluorophenyl)-6-oxo-3,4,6,7-tetrahydro-2,7-naphthyridine-2(1H)-carboxamide] | 0.5 to 5 µM
Cc1ccc2c(c1)CCN(C(=O)Nc1ccc(Cl)c(Cl)c1)C2 [Compound 135, N-(3,4-Dichlorophenyl)-6-methyl-3,4-dihydroisoquinoline-2(1H)-carboxamide] | 0.5 to 5 µM
COC(=O)c1ccc2c(c1)CN(C(=O)Nc1ccc(Cl)c(Cl)c1)CC2 [Compound 131, Methyl 2-((3,4-dichlorophenyl)carbamoyl)-1,2,3,4-tetrahydroisoquinoline-7-carboxylate] | 0.5 to 5 µM
